{"source": "patent US20170312260A1", "about": "(LAUNX BIOMEDICAL CO., LTD., priority 2014, published 2017)", "tested_on": "cancers cell lines", "test": "Inhibition test on all kinds of cancer cell lines (overall statement)", "format": "cell-based", "conditions": "several / various cancer cell lines, Table 18, FIG. 1", "method": "The cell numbers were counted and reseed as 2×10^6 in cell culture plate/flask. Then, the culture medium were added to a volume of 10 ml, and the cells were cultured for 2-3 days. Then, the cells were suspended for loading into 96-well plates. The number of cells was 3000 and the volume of the culture medium was 100 μl each well.\nRemoving the original culture medium from 96-well plate. Then add 100 μl of commercially drug at a concentration of 10 μM per well. After 72 hours, add the diluted WST-1 reagent to the well with 100 μl/well, and the diluted WST-1 reagent was acquired from the dilution of 9:1 medium and WST-1 stock reagent. Finally, the total volume of each well was 200 μl/well. Culture the 96-well plate at 37° C. for 30 to 90 minutes. Detecting and calculate the survival rate of each cancer cells with an ELISA reader at OD450 nm.\nAs a result in the experiments of the present invention."}
{"smiles": "Fc1ccc([C@@H]2CCNC[C@H]2COc2ccc3c(c2)OCO3)cc1", "note": "[Paroxetine]", "values": [{"measurement": "inhibitory effect on cancer cell lines (in words)", "result": "significant inhibitory effect"}]}
